Measurements reported in PMC11375702, “Early Preclinical Studies of Ergosterol Peroxide and Biological Evaluation of Its Derivatives” (ACS Omega, 2024).

Legend:
Caco-2 cells = assay: Caco-2 permeability assay; type: in vitro ADME; conditions: Caco-2
Description: It was performed in the 96-well Transwell system with a modified method.[36] Caco-2 cells were maintained at 37 °C in a humidified incubator with an atmosphere of 5% CO2. The cells were cultured in MEM containing 20% FBS in […], 100 units/mL penicillin, and 100 μg/mL of streptomycin. The Caco-2 cells were seeded onto inserts of a 96-well plate at a density of 0.5 × 10^5 cells/insert and cultured in the MEM containing 20% FBS for 7 days. Each cultured monolayer on the 96-well plate was washed twice with HBSS/HEPES (10 mM, pH 7.4). The permeability assay was initiated by the addition of each compound solution (10 μmol/L) into inserts (apical side, A) or receivers (basolateral side, B). The Caco-2 cell monolayers were incubated for 2 h at 37 °C. Fractions were collected from receivers (if apical to basal permeability) or inserts (if basal to apical permeability), and concentrations were assessed by UPLC/MS (Waters; Milford, MA). All compounds were tested in triplicates. The A → B (or B → A) apparent permeability coefficients ([…]) of each compound were calculated using the equation Pappa = dQ/dt × 1/AC0. The flux of a drug across the monolayer is dQ/dt (μmol/s). The initial drug concentration on the apical side is C0 (μmol/L). The surface area of the monolayer is A (cm^2).

hERG = target: T1, hERG (Homo sapiens, UniProt Q12809); assay: hERG channel inhibition assay (QPatch HTX, HEK-293); type: cell-based; conditions: human, HEK-293 cells that express hERG
T1 construct: expressed in transfected cells; host or cells: HEK-293
T1 sequence (Q12809 whole entry): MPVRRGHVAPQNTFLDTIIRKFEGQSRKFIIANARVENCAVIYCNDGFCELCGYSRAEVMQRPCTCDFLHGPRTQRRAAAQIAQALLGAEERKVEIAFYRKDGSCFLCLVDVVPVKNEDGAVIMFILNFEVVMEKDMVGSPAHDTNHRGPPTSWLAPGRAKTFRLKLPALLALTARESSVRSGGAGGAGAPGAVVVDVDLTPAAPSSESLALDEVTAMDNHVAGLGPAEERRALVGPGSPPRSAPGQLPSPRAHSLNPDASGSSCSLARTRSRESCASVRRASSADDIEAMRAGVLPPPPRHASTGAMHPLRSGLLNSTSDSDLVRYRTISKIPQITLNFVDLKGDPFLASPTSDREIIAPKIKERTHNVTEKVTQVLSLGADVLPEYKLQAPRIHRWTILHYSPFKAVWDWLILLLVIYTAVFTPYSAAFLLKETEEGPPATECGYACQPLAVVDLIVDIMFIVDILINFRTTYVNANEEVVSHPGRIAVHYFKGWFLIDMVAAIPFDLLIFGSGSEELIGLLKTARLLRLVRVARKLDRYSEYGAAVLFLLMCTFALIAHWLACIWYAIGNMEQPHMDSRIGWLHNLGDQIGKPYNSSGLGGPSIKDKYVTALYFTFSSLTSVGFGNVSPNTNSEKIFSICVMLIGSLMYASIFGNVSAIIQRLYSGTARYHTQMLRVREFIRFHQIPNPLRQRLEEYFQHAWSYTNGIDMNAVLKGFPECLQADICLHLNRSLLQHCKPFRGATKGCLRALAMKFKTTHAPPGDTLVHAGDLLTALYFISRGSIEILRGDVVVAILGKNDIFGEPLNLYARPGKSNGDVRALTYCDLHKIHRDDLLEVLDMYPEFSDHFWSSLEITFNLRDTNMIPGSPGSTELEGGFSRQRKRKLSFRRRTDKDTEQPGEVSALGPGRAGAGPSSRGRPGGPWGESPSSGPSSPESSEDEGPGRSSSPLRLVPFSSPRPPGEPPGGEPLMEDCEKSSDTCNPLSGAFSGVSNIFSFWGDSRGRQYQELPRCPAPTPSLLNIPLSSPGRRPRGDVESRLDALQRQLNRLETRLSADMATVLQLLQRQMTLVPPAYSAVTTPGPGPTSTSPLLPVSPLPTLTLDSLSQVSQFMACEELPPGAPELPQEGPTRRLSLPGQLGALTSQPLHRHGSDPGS
Description: (§1) To assess potential cardiotoxicity, we performed the human ether-go-go-related gene (hERG) inhibition assay. […] Briefly, EP was tested at six concentrations (cumulative concentration–response). […] For hepatotoxicity determination, we performed the microsomal CYP inhibition assay. Briefly, EP was incubated at seven increasing concentrations with pooled human liver microsomes. […] The supernatants were analyzed by LC-MS/MS.

CYP2B6 = target: T2, CYP2B6 (Homo sapiens, UniProt P20813); assay: Microsomal CYP inhibition assay, CYP2B6; type: in vitro ADME; conditions: pooled human liver microsomes, probe bupropion
T2 construct: from tissue; host or cells: pooled human liver microsomes
T2 sequence (P20813 1-491): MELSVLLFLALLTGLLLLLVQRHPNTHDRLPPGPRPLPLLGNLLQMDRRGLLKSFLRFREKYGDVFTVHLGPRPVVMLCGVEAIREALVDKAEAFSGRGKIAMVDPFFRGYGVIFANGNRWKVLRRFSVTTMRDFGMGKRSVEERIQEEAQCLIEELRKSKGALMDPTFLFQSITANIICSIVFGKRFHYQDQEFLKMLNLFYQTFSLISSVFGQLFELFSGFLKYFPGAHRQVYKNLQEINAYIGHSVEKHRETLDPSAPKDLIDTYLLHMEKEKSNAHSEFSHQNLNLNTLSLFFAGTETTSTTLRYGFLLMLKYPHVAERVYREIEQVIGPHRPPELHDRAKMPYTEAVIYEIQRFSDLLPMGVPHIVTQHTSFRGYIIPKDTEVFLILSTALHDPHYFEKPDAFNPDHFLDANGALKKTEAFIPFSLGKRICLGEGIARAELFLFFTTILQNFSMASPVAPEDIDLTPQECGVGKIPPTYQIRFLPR
Description: as §1

[1] = Maximum tolerated dose (MTD) study, single oral dose; type: in vivo, mouse; conditions: for Gross pathology, External Abnormalities: No Abnormality Detected (number of mice) / Gross pathology, Internal Abnormalities: No Abnormality Detected (number of mice): 6 mice examined
Description: The study was conducted according to published and acceptable experimental conditions reported.[53] Animal protocols approved by LSU#IACUCAM21065 and UCC# 037–2021–16–01-PHA-IBC. Briefly, male and female Balb/c mice were given a single oral dose administration of ergosterol peroxide to C57BL/6 female and male mice (5–8 weeks old), followed by 7 days postdose observations. Toxicity is defined as a 20% loss of body weight. The study comprised three groups for a toxicity phase including: one control and two EP-treated groups (G2 and G3), having 6 mice/sex/group. Mice from groups G2 (300 mg/kg BW) and G3 (500 mg/kg BW) were administered an EP uniform suspension (light yellow), once by oral gavage. The mice from the control group (G1) received a 1% v/v Tween 80 and 0.5% w/v NaCMC in the RO water suspension. The dosing volume was kept constant at 10 mL/kg for each mouse. Then, animals were euthanized, and organs (liver, lung, heart, and kidney) were collected to check global signs of toxicity. Parameters evaluated included observation for clinical signs, body weight, body weight gain, feed consumption, clinical chemistry, and gross pathology. The total animals per MTD was 36 mice.

CC(C)[C@@H](C)/C=C/[C@@H](C)[C@H]1CC[C@@H]2[C@]1(C)CC[C@H]1[C@]23C=C[C@]2(C[C@@H](O)CC[C@]12C)OO3 [Compound 2, Ergosterol peroxide]
efflux ratio (B2A/A2B) (Caco-2 cells): 0.93
inhibition at 0.1 µM (hERG; 0.1 μM, first addition): 1.99%
inhibition at 0.3 µM (hERG; 0.3 μM, second addition): 2.99%
inhibition at 1 µM (hERG; 1 μM, 3rd addition): 3.04%
inhibition at 3 µM (hERG; 3 μM, fourth addition): 6.21%
inhibition at 10 µM (hERG; 10 μM, fifth addition): 10.1%
inhibition at 30 µM (hERG; 30 μM, sixth addition): 18.7%
IC50 (CYP2B6): > 25 µM
decrease in albumin vs vehicle control ([1]; 300 mg/kg (G2), male mice): 6%
decrease in triglycerides vs vehicle control ([1]; 500 mg/kg (G3), male mice): 19%
MTD at 7 days ([1]; both sexes, mouse, in vivo, single oral dose, male or female mice): > 500 mg/kg
ALB, mean ([1]; female, 300 mg/kg): 3.08 g/dL
ALP, mean ([1]; female, 300 mg/kg): 394.32 U/L
ALT, mean ([1]; female, 300 mg/kg): 44.99 U/L
AST, mean ([1]; female, 300 mg/kg): 88.20 U/L
BUN, mean ([1]; female, 300 mg/kg): 16.45 mg/dL
CREA, mean ([1]; female, 300 mg/kg): 0.21 mg/dL
TGL, mean ([1]; female, 300 mg/kg): 38.15 mg/dL
Gross pathology, External Abnormalities: No Abnormality Detected (number of mice) ([1]; female, 300 mg/kg): 6
Body Weight, mean ([1]; female, 300 mg/kg, day 1): 21.05 g
Food Consumption, Average Feed Intake/ Animal ([1]; female, 300 mg/kg, day 1 to 4): 12.3 g/Animal
Body Weight, mean ([1]; female, 300 mg/kg, day 4): 21.15 g
Food Consumption, Average Feed Intake/ Animal ([1]; female, 300 mg/kg, day 4 to 7): 12.2 g/Animal
Body Weight, mean ([1]; female, 300 mg/kg, day 7): 21.45 g
ALB, mean ([1]; female, 500 mg/kg): 3.03 g/dL
ALP, mean ([1]; female, 500 mg/kg): 400.51 U/L
ALT, mean ([1]; female, 500 mg/kg): 47.50 U/L
AST, mean ([1]; female, 500 mg/kg): 75.14 U/L
BUN, mean ([1]; female, 500 mg/kg): 17.63 mg/dL
CREA, mean ([1]; female, 500 mg/kg): 0.20 mg/dL
TGL, mean ([1]; female, 500 mg/kg): 30.51 mg/dL
Gross pathology, External Abnormalities: No Abnormality Detected (number of mice) ([1]; female, 500 mg/kg): 6
Body Weight, mean ([1]; female, 500 mg/kg, day 1): 21.27 g
Food Consumption, Average Feed Intake/ Animal ([1]; female, 500 mg/kg, day 1 to 4): 12.3 g/Animal
Body Weight, mean ([1]; female, 500 mg/kg, day 4): 21.17 g
Food Consumption, Average Feed Intake/ Animal ([1]; female, 500 mg/kg, day 4 to 7): 11.8 g/Animal
Body Weight, mean ([1]; female, 500 mg/kg, day 7): 21.53 g
ALB, mean ([1]; male, 300 mg/kg): 2.91 g/dL
ALP, mean ([1]; male, 300 mg/kg): 312.51 U/L
ALT, mean ([1]; male, 300 mg/kg): 34.83 U/L
AST, mean ([1]; male, 300 mg/kg): 47.80 U/L
BUN, mean ([1]; male, 300 mg/kg): 16.45 mg/dL
CREA, mean ([1]; male, 300 mg/kg): 0.17 mg/dL
TGL, mean ([1]; male, 300 mg/kg): 51.23 mg/dL
Gross pathology, External Abnormalities: No Abnormality Detected (number of mice) ([1]; male, 300 mg/kg): 6
Gross pathology, Internal Abnormalities: No Abnormality Detected (number of mice) ([1]; male, 300 mg/kg): 6
Body Weight, mean ([1]; male, 300 mg/kg, day 1): 21.85 g
Food Consumption, Average Feed Intake/ Animal ([1]; male, 300 mg/kg, day 1 to 4): 14.9 g/Animal
Body Weight, mean ([1]; male, 300 mg/kg, day 4): 22.28 g
Food Consumption, Average Feed Intake/ Animal ([1]; male, 300 mg/kg, day 4 to 7): 14.6 g/Animal
Body Weight, mean ([1]; male, 300 mg/kg, day 7): 23.03 g
ALB, mean ([1]; male, 500 mg/kg): 3.03 g/dL
ALP, mean ([1]; male, 500 mg/kg): 412.86 U/L
ALT, mean ([1]; male, 500 mg/kg): 54.07 U/L
AST, mean ([1]; male, 500 mg/kg): 91.50 U/L
BUN, mean ([1]; male, 500 mg/kg): 17.06 mg/dL
CREA, mean ([1]; male, 500 mg/kg): 0.17 mg/dL
TGL, mean ([1]; male, 500 mg/kg): 46.91 mg/dL
Gross pathology, External Abnormalities: No Abnormality Detected (number of mice) ([1]; male, 500 mg/kg): 6
Gross pathology, Internal Abnormalities: No Abnormality Detected (number of mice) ([1]; male, 500 mg/kg): 6
Body Weight, mean ([1]; male, 500 mg/kg, day 1): 22.62 g
Food Consumption, Average Feed Intake/ Animal ([1]; male, 500 mg/kg, day 1 to 4): 10.4 g/Animal
Body Weight, mean ([1]; male, 500 mg/kg, day 4): 22.70 g
Food Consumption, Average Feed Intake/ Animal ([1]; male, 500 mg/kg, day 4 to 7): 13.7 g/Animal
Body Weight, mean ([1]; male, 500 mg/kg, day 7): 22.27 g
clinical signs ([1]; oral, 300 and 500 mg/kg, mice): no abnormal clinical signs
